# Test results from patent US20180141939A1, “SOLID FORMS OF A BET INHIBITOR” (Gilead Sciences, Inc., priority 2016, published 2018).
# Tests used:
# Assay type in all cases: physicochemical
# [1] = Approximate solubility in single solvents
# Text: (§1) In some embodiments, Compound I phosphate Form I, once formed, e.g., via the reactive crystallization methods disclosed herein, may be recrystallized from a variety of single solvents or binary solvent systems (e.g., solvent/anti-solvent systems) to promote desired physical characteristics such as crystal size. Recrystallization of Compound I phosphate Form I may occur with or without the addition of Compound I phosphate Form I seed material. The single solvents and binary solvent systems in which Compound I phosphate Form I may be recrystallized include, but are not limited to, MeOH, MeOH/EtOAc, DMA/MeCN, DMAc/toluene, DMF/MeCN, DMAc/MeCN, DMF/EtOAc, DMF/toluene, DMSO/MeCN, DMSO/MeCN, DMSO/IPA, NMP/MeCN, NMP/IPA, and NMP/EtOAc. A summary of the approximate solubility of Compound I phosphate Form I in various single solvents and binary solvent systems is provided in Tables I and II, respectively.
# [2] = Dissolution in 50 mM sodium acetate solution, pH 5; conditions: pH of 5
# Protocol: The dissolution of […] and […] was also evaluated in a 50 mM sodium acetate solution at a pH of 5 (FIG. 92).
# [3] = Relative stability of solid forms (competitive slurries); conditions: statement in words
# [4] = Solid-state chemical stability at various storage conditions
# [5] = Approximate solubility in 1:1 (v/v) binary solvents
# Text: as §1
# [6] = Kinetic aqueous solubility / solubility in water of salt and co-crystal forms; conditions: aqueous
structure (smiles),measurement,setting,value
"Cc1noc(C)c1-c1cc(C(O)(c2ccccn2)c2ccccn2)c2nc(C3CC3)[nH]c2c1 [Compound I phosphate Form I, (2-cyclopropyl-6-(3,5-dimethylisoxazol-4-yl)-1H-benzo[d]imidazol-4-yl)di(pyridin-2-yl)methanol]",Approximate Solubility,"[1]; 1,4-dioxane, 20-80° C.",remained a slurry
same,Approximate Solubility,"[1]; 1-Propanol, 20-80° C.",remained a slurry
same,Approximate Solubility,"[1]; 2-Butanol, 20-80° C.",remained a slurry
same,Approximate Solubility,"[1]; 2-MeTHF, 20° C.",0.64 mg-solid/ml-solvent
same,Approximate Solubility,"[1]; 2-Propanol/IPA, 20° C.",1.02 mg-solid/ml-solvent
same,Approximate Solubility,"[1]; Acetic Acid, 20° C.",~190 mg-solid/ml-solvent
same,Approximate Solubility,"[1]; Acetic Acid, 50° C.",>190 mg-solid/ml-solvent
same,Approximate Solubility,"[1]; Acetic Acid, 80° C.",>>190 mg-solid/ml-solvent
same,Approximate Solubility,"[1]; Acetone, 20° C.",0.48 mg-solid/ml-solvent
same,Approximate Solubility,"[1]; Acetonitrile, 20° C.",0.23 mg-solid/ml-solvent
same,Approximate Solubility,"[1]; DCM (form changes), 20° C.",1.54 mg-solid/ml-solvent
same,Approximate Solubility,"[1]; DMAc, 50° C.",>78 mg-solid/ml-solvent
same,Approximate Solubility,"[1]; DMAc, 80° C.",>>78 mg-solid/ml-solvent
same,Approximate Solubility,"[1]; DMF, 50° C.",<70 mg-solid/ml-solvent
same,Approximate Solubility,"[1]; DMF, 80° C.",>70 mg-solid/ml-solvent
same,Approximate Solubility,"[1]; DMSO, 50° C.",>185 mg-solid/ml-solvent
same,Approximate Solubility,"[1]; DMSO, 80° C.",>>185 mg-solid/ml-solvent
same,Approximate Solubility,"[1]; EtOH/water, 20° C.",22.7 mg-solid/ml-solvent
same,Approximate Solubility,"[1]; Ethanol, 20° C.",2.46 mg-solid/ml-solvent
same,Approximate Solubility,"[1]; Ethyl acetate, 20° C.",0.45 mg-solid/ml-solvent
same,Approximate Solubility,"[1]; Heptane, 20° C.",<LOD
same,Approximate Solubility,"[1]; Heptane, cell spans the 50° C. and 80° C. columns",remained a slurry
same,Approximate Solubility,"[1]; Hexane, 20-80° C.",API adhered to vial walls
same,Approximate Solubility,"[1]; Isopropyl acetate, 20° C.",0.37 mg-solid/ml-solvent
same,Approximate Solubility,"[1]; MEK, 20° C.",2.14 mg-solid/ml-solvent
same,Approximate Solubility,"[1]; MIBK, 20° C.",0.31 mg-solid/ml-solvent
same,Approximate Solubility,"[1]; MTBE, 20° C.",0.16 mg-solid/ml-solvent
same,Approximate Solubility,"[1]; Methanol, 20° C.",12.56 mg-solid/ml-solvent
same,Approximate Solubility,"[1]; NMP, 50° C.",>135 mg-solid/ml-solvent
same,Approximate Solubility,"[1]; NMP, 80° C.",>>135 mg-solid/ml-solvent
same,Approximate Solubility,"[1]; THF, 20° C.",0.48 mg-solid/ml-solvent
same,Approximate Solubility,"[1]; Toluene, 20° C.",1.34 mg-solid/ml-solvent
same,Approximate Solubility,"[1]; Water, 20° C.",12.16 mg-solid/ml-solvent
same,dissolution,[2],dissolve rapidly and maintain solubility for about 24 hours
same,thermodynamic / physical stability of the solid form,[3],most thermodynamically stable form of Compound I phosphate in most solvents
same,% AN,"[4]; 4° C., 1 month",97.1%
same,% LS,"[4]; 4° C., 1 month",100.8%
same,% AN,"[4]; 25° C./60% RH, 1 month",97.1%
same,% LS,"[4]; 25° C./60% RH, 1 month",100.8%
same,% AN,"[4]; 40° C./75% RH, 1 month",97.2%
same,% LS,"[4]; 40° C./75% RH, 1 month",100.7%
same,% AN,"[4]; 40° C./75% RH, open, 1 month",97.1%
same,% LS,"[4]; 40° C./75% RH, open, 1 month",100.0%
same,% AN,"[4]; 60° C., 1 month",97.1%
same,% LS,"[4]; 60° C., 1 month",100.7%
same,% AN,[4]; Initial Time,97.1%
same,chemical stability,[4]; up to about 40° C./75% RH for about 3 months,chemically stable
same,chemical stability,[4]; various conditions for about 1 month,chemically stable
same,% AN,"[4]; −20° C., 1 month",96.9%
same,% LS,"[4]; −20° C., 1 month",100.9%
same,Approximate Solubility,"[5]; DMAc/2-MeTHF 1:1 (v/v), 50° C.",~17.2 mg-solid/ml-solvent
same,Approximate Solubility,"[5]; DMAc/Acetone 1:1 (v/v), 50° C.",~11.3 mg-solid/ml-solvent
same,Approximate Solubility,"[5]; DMAc/EtOAc 1:1 (v/v), 80° C.",~10.8 mg-solid/ml-solvent
same,Approximate Solubility,"[5]; DMAc/IPA 1:1 (v/v), 80° C.",~21 mg-solid/ml-solvent
same,Approximate Solubility,"[5]; DMAc/IPAc 1:1 (v/v), 50° C.",~7.7 mg-solid/ml-solvent
same,Approximate Solubility,"[5]; DMAc/MIBK 1:1 (v/v), 50° C.",~15 mg-solid/ml-solvent
same,Approximate Solubility,"[5]; DMAc/MeCN 1:1 (v/v), 50° C.",~11.5 mg-solid/ml-solvent
same,Approximate Solubility,"[5]; DMF/2-MeTHF 1:1 (v/v), 50° C.",~14.3 mg-solid/ml-solvent
same,Approximate Solubility,"[5]; DMF/Acetone 1:1 (v/v), 50° C.",~19.5 mg-solid/ml-solvent
same,Approximate Solubility,"[5]; DMF/EtOAc 1:1 (v/v), 50° C.",~10.8 mg-solid/ml-solvent
same,Approximate Solubility,"[5]; DMF/IPA 1:1 (v/v), 50° C.",~14 mg-solid/ml-solvent
same,Approximate Solubility,"[5]; DMF/IPAc 1:1 (v/v), 50° C.",~13.7 mg-solid/ml-solvent
same,Approximate Solubility,"[5]; DMF/MIBK 1:1 (v/v), 80° C.",~6 mg-solid/ml-solvent
same,Approximate Solubility,"[5]; DMF/MIBK 1:1 (v/v), cell spans the 20° C. and 50° C. columns",remained a thin slurry
same,Approximate Solubility,"[5]; DMF/MeCN 1:1 (v/v), 50° C.",~11 mg-solid/ml-solvent
same,Approximate Solubility,"[5]; DMSO/2-MeTHF 1:1 (v/v), 20° C.",>51.5 mg-solid/ml-solvent
same,Approximate Solubility,"[5]; DMSO/2-MeTHF 1:1 (v/v), 50° C.",>>51.5 mg-solid/ml-solvent
same,Approximate Solubility,"[5]; DMSO/2-MeTHF 1:1 (v/v), 80° C.",>>>51.5 mg-solid/ml-solvent
same,Approximate Solubility,"[5]; DMSO/Acetone 1:1 (v/v), 20° C.",>30 mg-solid/ml-solvent
same,Approximate Solubility,"[5]; DMSO/Acetone 1:1 (v/v), 50° C.",>>30 mg-solid/ml-solvent
same,Approximate Solubility,"[5]; DMSO/Acetone 1:1 (v/v), 80° C.",>>>30 mg-solid/ml-solvent
same,Approximate Solubility,"[5]; DMSO/EtOAc 1:1 (v/v), 50° C.",>51.5 mg-solid/ml-solvent
same,Approximate Solubility,"[5]; DMSO/EtOAc 1:1 (v/v), 80° C.",>>51.5 mg-solid/ml-solvent
same,Approximate Solubility,"[5]; DMSO/IPA 1:1 (v/v), 80° C.",>41 mg-solid/ml-solvent
same,Approximate Solubility,"[5]; DMSO/IPAc 1:1 (v/v), 20° C.",>32 mg-solid/ml-solvent
same,Approximate Solubility,"[5]; DMSO/IPAc 1:1 (v/v), 50° C.",>>32 mg-solid/ml-solvent
same,Approximate Solubility,"[5]; DMSO/IPAc 1:1 (v/v), 80° C.",>>>32 mg-solid/ml-solvent
same,Approximate Solubility,"[5]; DMSO/MIBK 1:1 (v/v), 50° C.",>50.5 mg-solid/ml-solvent
same,Approximate Solubility,"[5]; DMSO/MIBK 1:1 (v/v), 80° C.",>>50.5 mg-solid/ml-solvent
same,Approximate Solubility,"[5]; DMSO/MeCN 1:1 (v/v), 50° C.",>33.5 mg-solid/ml-solvent
same,Approximate Solubility,"[5]; DMSO/MeCN 1:1 (v/v), 80° C.",>>33.5 mg-solid/ml-solvent
same,Approximate Solubility,"[5]; HOAC/2-MeTHF 1:1 (v/v), 80° C.",~15.3 mg-solid/ml-solvent
same,Approximate Solubility,"[5]; HOAC/Acetone 1:1 (v/v), 50° C.",>43 mg-solid/ml-solvent
same,Approximate Solubility,"[5]; HOAC/Acetone 1:1 (v/v), 80° C.",>>43 mg-solid/ml-solvent
same,Approximate Solubility,"[5]; HOAC/EtOAc 1:1 (v/v), 50° C.",~13.8 mg-solid/ml-solvent
same,Approximate Solubility,"[5]; HOAC/EtOAc 1:1 (v/v), 80° C.",>41.5 mg-solid/ml-solvent
same,Approximate Solubility,"[5]; HOAC/IPA 1:1 (v/v), 80° C.",>44.5 mg-solid/ml-solvent
same,Approximate Solubility,"[5]; HOAC/IPAc 1:1 (v/v), 50° C.",~8.3 mg-solid/ml-solvent
same,Approximate Solubility,"[5]; HOAC/IPAc 1:1 (v/v), 80° C.",>8.3 mg-solid/ml-solvent
same,Approximate Solubility,"[5]; HOAC/MIBK 1:1 (v/v), 50° C.",~22 mg-solid/ml-solvent
same,Approximate Solubility,"[5]; HOAC/MIBK 1:1 (v/v), 80° C.",>22 mg-solid/ml-solvent
same,Approximate Solubility,"[5]; HOAC/MeCN 1:1 (v/v), 20° C.",>30.5 mg-solid/ml-solvent
same,Approximate Solubility,"[5]; HOAC/MeCN 1:1 (v/v), 50° C.",>>30.5 mg-solid/ml-solvent
same,Approximate Solubility,"[5]; HOAC/MeCN 1:1 (v/v), 80° C.",>>>30.5 mg-solid/ml-solvent
same,Approximate Solubility,"[5]; NMP/2-MeTHF 1:1 (v/v), 20° C.",~12 mg-solid/ml-solvent
same,Approximate Solubility,"[5]; NMP/2-MeTHF 1:1 (v/v), 80° C.",~24 mg-solid/ml-solvent
same,Approximate Solubility,"[5]; NMP/Acetone 1:1 (v/v), 50° C.",>24 mg-solid/ml-solvent
same,Approximate Solubility,"[5]; NMP/Acetone 1:1 (v/v), 80° C.",>>24 mg-solid/ml-solvent
same,Approximate Solubility,"[5]; NMP/IPAc 1:1 (v/v), 50° C.",~15 mg-solid/ml-solvent
same,Approximate Solubility,"[5]; NMP/IPAc 1:1 (v/v), 80° C.",>44 mg-solid/ml-solvent
same,Approximate Solubility,"[5]; NMP/MeCN 1:1 (v/v), 80° C.",>27.5 mg-solid/ml-solvent
same,kinetic aqueous solubility,[6],about 3 mg/mL
